≈ marks a conversion by molar mass, not a printed value.

For two compounds, MIC, Solubility of natamycin and solubility in water results are on record in patent US20060116335A1, “Ready-for-complexation composition” (Lytone Enterprise, Inc., priority 2004, published 2006).

For data set [1], the system named is Aspergillus niger (CRCC 30506). Kind of data set: Antimycotic activity (MIC) on MRS agar plates inoculated with Aspergillus niger spores. It counts as cell-based. The conditions noted are these: 168 h, 7 days at 24° C. As to the method: The freshly prepared spore suspension (c.a. 10^6/ml)of Aspergillus niger (CRCC 30506) was inoculated on MRS agar plates containing different concentrations of natamycin. The diameter of the colonies of Aspergillus niger was measured after being incubated for 7days at 24° C. […] The results of Table 2 also indicate that the RFC mixture show higher antimycotic activity than conventional natamycin because of the improved solubility.

Data set [2] can be described thus: Natamycin solubility of the RFC composition in water by UV spectrophotometer at 332.6 nm. It counts as physicochemical. The conditions noted are these: 25° C. The method, then:
The RFC compositions were prepared by mixing commercial natamycin (87%) withβ-CD(98%) in different molar ratios. A comparison on the solubility of natamycin was made for the RFC compositions. The solubility of natamycin in water is determined by UV Spectrophotometer at 332.6 nm.

The conditions of data set [3]: cited from earlier work.

Usually MIC stands for the least concentration at which growth counts as inhibited. Read a high MIC as a need for much substance. `C[C@@H]1C/C=C/C=C/C=C/C=C/[C@H](O[C@@H]2O[C@H](C)[C@@H](O)[C@H](N)[C@@H]2O)C[C@@H]2O[C@](O)(C[C@@H](O)C[C@H]3O[C@@H]3/C=C/C(=O)O1)C[C@H](O)[C@H]2C(=O)O` [Commercial natamycin (50%), natamycin] showed an MIC in data set [1] of 1.25 to 1.5 µg/mL (≈ 1.88 to 2.25 µM). In the case of `C[C@@H]1C/C=C/C=C/C=C/C=C/[C@H](O[C@@H]2O[C@H](C)[C@@H](O)[C@H](N)[C@@H]2O)C[C@@H]2O[C@](O)(C[C@@H](O)C[C@H]3O[C@@H]3/C=C/C(=O)O1)C[C@H](O)[C@H]2C(=O)O` [natamycin], the Solubility of natamycin in data set [2] is given as 45 ppm. Further, the solubility in water in data set [3] was 0.005-0.010 weight/weigh.
